From the NIST ThermoML archive (doi:10.1021/je700206y) come the findings set out here.

± gives the expanded uncertainty stated by the source.

In general, mass density refers to mass per unit of volume. In general, refractive index refers to a measure of how strongly the sample bends light.

For data set [1] the following is noted: Liquid; for mass density: 293.2 K, 101.33 kPa; for Normal boiling temperature: Distillation.
Data set [2] can be described thus: refractive index (Na D-line) (dimensionless). The conditions noted are these: 293.2 K; 101.33 kPa; Liquid; Standard Abbe refractometry.
Data set [3] can be described thus: Boiling temperature at pressure P. The conditions noted are these: 1.733 kPa; Liquid; Distillation.

As for `COC(=O)CCC(=O)OC` [dimethyl 1,4-butanedioate], in data set [1], the mass density is 1119.13 ± 1.6 kg/m3 and the Normal boiling temperature amounted to 196.1 ± 0.2 °C. The refractive index in data set [2] is 1.41969 ± 0.00078.
Regarding `COC(=O)CCCCC(=O)OC` [dimethyl 1,6-hexanedioate], the mass density in data set [1] is on record as 1061.72 ± 0.56 kg/m3. Also, the refractive index in data set [2] is 1.42825 ± 0.0007. In addition, the “Boiling temperature at pressure P” value in data set [3] amounted to 115 ± 1 °C.
As for `COC(=O)CCCC(=O)OC` [dimethyl pentanedioate], in data set [1], the mass density is recorded as 1087.67 ± 0.63 kg/m3 and the Normal boiling temperature came out at 214.2 ± 0.2 °C. For the same compound, the refractive index in data set [2] is 1.42454 ± 0.0007.
Turning to `O=CO` [formic acid], in data set [1], the mass density is given as 1220.04 ± 1 kg/m3 and the Normal boiling temperature was found to be 101.2 ± 0.2 °C. Moreover, in data set [2], the refractive index came out at 1.37144 ± 0.0007.
